# Where two headings read alike, the source gives them in different places.
# Assays:
# [1] = parameters: species or system Female Balb/c mice; details: mouse, in vivo, iv
# Description: The pharmacokinetics of recombinant human chitinase in mice were determined as follows. Female Balb/c mice, 6-8 weeks old, were injected intravenously in the tail vein with 0.5 mg/kg, 5.0 mg/kg and 50 mg/kg recombinant human chitinase. For each dose, mice were terminally bled at 0.01, 0.25, 1, 8 and 24 hours after injection (2 animals were used per time point per dosage). Serum samples were then assayed for chitinase activity and concentration.
# [2] = test system: Aspergillus fumigatus; test: Agar diffusion assay; format: cell-based; parameters: key: +: Normal growth, no inhibition of growth observed; −: Inhibited fungal growth, zone of inhibition is observed
# [3] = test system: Saccharomyces cerevisiae (ATCC no. 26108); test: Broth assay; format: cell-based; parameters: key to IC50: 0: No fungal growth; 1: growth is 25% of control; 2: growth is 50% of control; 3: growth is 75% of control; 4: growth equivalent to control; 5: growth is greater than control; details: for IC50: lowest concentration inhibiting growth by at least 50%
# Description: (§1) In additional experiments, the anti-fungal activity of recombinant human chitinase (produced in COS cells as described in Example 5A) was evaluated in an agar diffusion assay, in a broth assay according to National Committee on Clinical Laboratory Standards, and in a cell wall inhibition assay according to Selitrennikoff, Antimicrob. Agents Chemother., 23:757-765 (1983).
# (§2) In the broth assay, 50 μg/ml of the sample (A: recombinant human chitinase, B: buffer control, C: control protein, D: a bacterial lysate with chitinase activity, or a known anti-fungal agent) was added with a certain concentration of the test fungal organism to RPMI 1640 media buffered with MOPS, pH 7.0. The samples were incubated at 35° C., with shaking at 120 rpm, for 48 hours, and then growth was evaluated by measuring the turbidity of the suspension. The approximate concentrations of the test fungi were as follows: 2.5×10^4 cells/ml of Candida albicans (ATCC no. 90028); 5×10^4 cells/ml of Candida albicans-polyene resistant (ATCC no. 38247); 1 x 10^4 cells/ml of Aspergillus fumigatus (ATCC no. 16424); 1×10^4 cells/ml of Neurospora crassa (ATCC no. 18889); and 1×10^4 cells/ml of Saccharomyces cerevisiae (ATCC no. 26108).
# [4] = test system: os-1 cell, mutant strain of Neurospora crassa (protoplasts); test: os-1 whole cell assay (fungal cell wall biosynthesis inhibition); format: cell-based; parameters: key to Cell Wall Regenertion: +: Normal cell-wall regeneration; −: Inhibited cell-wall regeneration; key to Cell Growth: +: Normal growth, no inhibition of growth observed; −: Inhibited fungal growth, zone of inhibition is observed
# Description: as §1
# The os-1 whole cell assay, which identifies inhibitors of fungal cell wall biosynthesis, was conducted essentially according to Selitrennikoff, supra, using an inoculum of 1.5×10^5 protoplasts/ml embedded in agar (Vogel's Medium N, 7.5% sorbitol, 1.5 % sucrose, 10 μg/ml nicotiniamide and 1 % agar) incubated at 25° C. for 72 hours. The cultures were monitored for changes in growth and morphology after disks containing 50 μg of the sample (A: recombinant human chitinase, B: buffer control, C: control protein, D: a bacterial lysate with chitinase activity, or a known anti-fungal agent) were placed on the agar medium. The os-1 cell is a mutant strain of Neurospora crassa that grows as protoplasts without cell walls when incubated under certain conditions at 37° C., but regenerates a cell wall under the appropriate conditions when the temperature is shifted to about 22° C.
# [5] = test system: test fungal organism; test: Broth assay, overall conclusion; format: cell-based
# Description: as §2
# [6] = test system: Candida albicans (ATCC no. 90028); test: Agar diffusion assay; format: cell-based; parameters: key: +: Normal growth, no inhibition of growth observed; −: Inhibited fungal growth, zone of inhibition is observed
# Description: as §1
# In the agar diffusion assay, approximately 1×10^6 cells/ml of Candida albicans (ATCC no. 90028) inoculated into 1.5% agar (RPMI 1640 media buffered with […] (MOPS), pH 7.0. A disk containing 50 μg of the sample (A: recombinant human chitinase, B: buffer control, C: control protein, D: a bacterial lysate with chitinase activity, or a known anti-fungal agent) was placed on the agar, and the zone of growth inhibition was measured. Results are shown in Table 1 below.
# [7] = test system: Candida albicans (ATCC no. 90028); test: Broth assay; format: cell-based; details: for IC50: lowest concentration inhibiting growth by at least 50%
# Description: as §1, §2
# [8] = test system: Aspergillus fumigatus (ATCC no. 16424); test: Broth assay; format: cell-based
# Description: as §1, §2
# [9] = test system: Candida albicans-polyene resistant (ATCC no. 38247); test: Broth assay; format: cell-based; details: for IC50: Candida, ATCC38247, lowest concentration inhibiting growth by at least 50%
# Description: as §1, §2
# [10] = test system: Aspergillus fumigatis; test: Preliminary in vitro fungal growth inhibition (turbidity of cultures); format: cell-based; details: 0, 2.8, 11.25, or 45 μg/ml; 24 hours; 10,000-50,000 CFU per ml
# Description: (§3) In a preliminary experiment, recombinant human chitinase was tested for inhibition of fungal growth in vitro. The two fungi Candida albicans and Aspergillus fumigatis are serious pathogens for immunocompromised patients. Both Candida and Aspergillus were grown in RPMI growth media at 37° C. to approximately 10,000-50,000 colony forming units (CFU) per ml. Recombinant human chitinase (produced in COS cells as described in Example 5A) was added to cultures at 0, 2.8, 11.25, or 45 μg/ml. After 24 hours, fungal growth was assessed by turbidity of cultures. […] The concentration of fungi tested, however, is much higher than the fungal burden seen during fungal infection in vivo. Different results may be obtained under different conditions, e.g., with a lower fungal burden, or when human chitinase is tested in combination with other anti-fungal agents.
# [11] = test system: Candida albicans; test: as above; format: cell-based; details: 0, 2.8, 11.25, or 45 μg/ml; 24 hours; 10,000-50,000 CFU per ml
# Description: as §3
# [12] = test system: Neurospora crassa (ATCC no. 18889); test: Broth assay; format: cell-based; parameters: key to Neurospora crassa Growth: 0: No fungal growth; 1: growth is 25% of control; 2: growth is 50% of control; 3: growth is 75% of control; 4: growth equivalent to control; 5: growth is greater than control; details: for IC50: Neurospora crassa, ATCC18889, lowest concentration inhibiting growth by at least 50%
# Description: as §1, §2
# [13] = Chitotriosidase (chitinase) catalytic activity, fluorogenic substrate; format: biochemical
# Description: Chitotriosidase (chitinase) activity was measured using the fluorogenic substrate 4-methylumbelliferyl-β-D-N,N′,N″-triacetylchitotriose (4 MU-chitotrioside, Sigma Chemical, St. Louis, Mo.) in McIlvain buffer (Hollak et al., supra). Ten μl samples of the recombinant product were combined with 10 itl bovine serum albumin (10 mg/ml), 15 μl fluorogenic substrate (2.71 mM), and 65 μl buffer (0.1M citric acid, 0.2M sodium phosphate, pH 5.2) in a total volume of 100 μl. Reactions were incubated at 37° C. for 15 minutes, then the reaction was stopped with the addition of 2 ml of 0.3M glycine/NaOH buffer (pH 10.6). The fluorescent cleavage product, 4-methylumbelliferone, was monitored with a fluorimeter (SLM-AMINCO Instruments, Inc., Rochester, N.Y.) at 450 nm. […] The known quantity of 4-MU was then correlated to the fluorescence signal from the fluorimeter and linear regression was used to determine a standard curve. The signal produced with diluted purified recombinant chitinase in the assay was then used to interpolate the nm quantity of substrate cleaved by the enzyme during the reaction time. This number was then divided by the concentration of protein to obtain the nm/min per mg protein (determined by A280 and calculated molar extinction coefficient).
# [14] = test system: os-1 cell, mutant strain of Neurospora crassa (protoplasts); test: os-1 whole cell assay (fungal cell wall biosynthesis inhibition); format: cell-based; parameters: key to Cell Wall Regenertion: +: Normal cell-wall regeneration; −: Inhibited cell-wall regeneration; key to Cell Growth: +: Normal growth, no inhibition of growth observed; −: Inhibited fungal growth, zone of inhibition is observed; details: 25° C., 72 hours
# [15] = 50 μg/ml, 35° C., 48 hours, turbidity score
# [16] = lowest concentration inhibiting growth by at least 90%
compound,measurement,setting,value
"A: rH-Chitinase: Recombinant human chitinase (full length, pRc/CMV-MO-13B, SEQ ID NO: 4) produced in COS cells according to Example 5A",MRT (total body mean residence time),[1]; 0.5 mg/kg,45 min
same,MRT (total body mean residence time),[1]; 5 mg/kg,45.6 min
same,MRT (total body mean residence time),[1]; 50 mg/kg,159 min
same,Aspergillus fumigatus Growth,[2]; 50 μg/disk,+
same,Saccharomyes cerevisiae Growth,[3]; [15],2 (growth is 50% of control)
same,conclusion in the os-1 whole cell assay (in words),[4],cell wall specific inhibitor
same,Cell Growth,"[4]; 50 μg/disk, 25° C., 72 hours",+
same,Cell Wall Regenertion,"[4]; 50 μg/disk, 25° C., 72 hours",−
same,Morphology,"[4]; 50 μg/disk, 25° C., 72 hours",protoplasts
same,Radial measurements of inhibited cell-wall regeneration from center of disk,"[4]; 50 μg/disk, 25° C., 72 hours",10 mm^d
same,conclusion in the broth assay (in words),[5],mildly anti-fungal
same,Candida albicans Growth,[6]; 50 μg/disk,+
same,Candida albicans Growth,[7]; [15],2 (growth is 50% of control)
same,Aspergillus fumigatus Growth,[8]; [15],3 (growth is 75% of control)
same,C. albicans-polyene resistant Growth,[9]; [15],2 (growth is 50% of control)
same,fungal growth assessed by turbidity of cultures,[10],"comparable rates, independent of chitinase concentration"
same,fungal growth assessed by turbidity of cultures,[11],"comparable rates, independent of chitinase concentration"
same,Neurospora crassa Growth,[12]; [15],4
same,chitotriosidase activity,"[13]; purified protein produced in COS cells, 37° C., 15 minutes, pH 5.2",90 nm/min per mg protein
OC(Cn1cncn1)(Cn1cncn1)c1ccc(F)cc1F [fluconazole],IC50,[3],4 µg/mL
same,IC50,"[7]; Candida albicans, ATCC90028, read-out: IC50",0.5 µg/mL
same,IC50,[9],16 µg/mL
same,IC50,[12],8 µg/mL
recombinant product: C-terminal truncated human chitinase analog (serine at position 370) expressed in E. coli from the Ara-chitinase plasmid at 25° C.,chitinase catalytic activity,"[13]; E. coli transformants grown at 25° C., in words",exhibited chitinase catalytic activity
C[C@@H]1[C@H](O)[C@@H](C)/C=C/C=C/C=C/C=C/C=C/C=C/C=C/[C@H](O[C@@H]2O[C@H](C)[C@@H](O)[C@H](N)[C@@H]2O)C[C@@H]2O[C@](O)(C[C@@H](O)C[C@@H](O)[C@H](O)CC[C@@H](O)C[C@@H](O)CC(=O)O[C@H]1C)C[C@H](O)[C@H]2C(=O)O [amphotericin B],Aspergillus fumigatus Growth,[2]; 400 ng/disk,−
same,Candida albicans Growth,[6]; 400 ng/disk,−
same,IC90,[7]; [16],0.5 µg/mL
same,IC90,[8]; [16],2 μg/ml (growth is 50% of control)
same,IC90,[9]; [16],>16 µg/mL
same,Cell Growth,[14]; 400 ng/disk,−
same,Cell Wall Regenertion,[14]; 400 ng/disk,+
same,Morphology,[14]; 400 ng/disk,cell debris
same,Radial measurement of inhibited growth from center of disk,[14]; 400 ng/disk,10 mm^e
same,IC90,[12]; [16],0.5 µg/mL
Nc1nc(=O)[nH]cc1F [5-fluorocytosine],IC50,"[3]; Saccharomyces cerevisiae, ATCC26108, read-out: IC50",0.125 µg/mL
same,IC50,[7],2 μg/ml (growth is 50% of control)
same,IC50,"[8]; Aspergillus fumigatus, ATCC16424, lowest concentration inhibiting growth by at least 50%",16 µg/mL
same,IC50,[9],0.06 µg/mL
same,IC50,[12],> 64 µg/mL
C[C@@H]([C@H](N)C(=O)N[C@H](C(=O)O)[C@H]1O[C@@H](n2ccc(=O)[nH]c2=O)[C@H](O)[C@@H]1O)[C@H](O)c1ccc(O)cn1 [nikkomycin Z],Cell Growth,[14]; 1 μg/disk,+
same,Cell Wall Regenertion,[14]; 1 μg/disk,−
same,Morphology,[14]; 1 μg/disk,protoplasts
same,Radial measurements of inhibited cell-wall regeneration from center of disk,[14]; 1 μg/disk,30 mm^d

# Reference: patent US6372212B1, “Chitinase materials and methods” (ICOS Corporation, priority 1996, dated 2002)
